The test system of assay [1] is gout patients with hyperuricemia. The format is in vivo. The note with it: for Mean absolute sUA reduction / Mean sUA % change / Mean sUA level: ± SE; for % Response rate for sUA falling below 4 mg/dL / % Response rate for sUA falling below 5 mg/dL / % Response rate for sUA falling below 6 mg/dL: allopurinol 300 mg. The protocol:
Study Objectives • To measure the effect of drug 1, alone and in combination with allopurinol, on serum urate concentration. • To evaluate the safety and tolerability of drug 1 in combination with allopurinol.
The study is open-label in gout patients with hyperuricemia, involving 2 panels of ˜10-12 patients per panel. The panels may be enrolled simultaneously.
Panel 1 receives a once-daily dose of allopurinol 300 mg alone for 7 days and for an additional 7 days in combination with a once-daily dose of drug 1 400 mg. Patients then receive 7 days of a once-daily dose of drug 1 400 mg alone. Panel 2 follows the same regimen as panel 1, at doses of allopurinol 300 mg and drug 1 600 mg.
• Day −10 to Day 28: colchicine prophylaxis; or • Day −7 to Day 28: colchicine prophylaxis (for patients not washing out from ULT) • Days 1-7: allopurinol 300 mg qd • Days 8-14: drug 1 400 mg qd+allopurinol 300 mg qd • Days 15-21: drug 1 400 mg qd
• Day −10 to Day 28: colchicine prophylaxis; or • Day −7 to Day 28: colchicine prophylaxis (for patients not washing out from ULT) • Days 1-7: allopurinol 300 mg qd • Days 8-14: drug 1 600 mg qd+allopurinol 300 mg qd • Days 15-21: drug 1 600 mg qd
Gout patients on a urate lowering therapy (ULT), have previously taken a ULT or who have never taken a ULT are eligible to participate. Screening procedures to determine patient eligibility are performed within approximately 14 days of the first dose of study drug (Day 1). Subjects currently on ULT wash-out for at least 10 days before Day 1, and begin colchicine (Colcry® 0.6 mg qd, URL Pharma) as prophylaxis for gout flares at the beginning of the wash-out period. Subjects not on ULT begin colchicine administration at least 7 days prior to Day 1. Patients intolerant of colchicine during the screening period are considered screen failures and not enrolled. Prophylactic administration of colchicine continues for 7 days after the last dose of study medication.
Eligible patients report to the study center early morning on Days −1, 7, 14, and 21 (or the afternoon/evening the day before). Serial blood samples are collected on Days −1, 7, 14, and 21. Study medication is administered to each patient and taken orally every morning with approximately 240 mL of water, at approximately the same time of the morning every day, and approximately 30 minutes after finishing a full breakfast (approximately 650 Kcal and 35% fat); the breakfast is standardized on Days −1 to 21.
Inclusion Criteria • Patient is male or post-menopausal or surgically sterile female. • Patient is 18-80 years of age. • Patient meets one or more criteria for the diagnosis of gout as per the American Rheumatism Association (ARA) Criteria for the Classification of Acute Arthritis of Primary Gout (Appendix B). • Patient sUA≥8 mg/dL at screening. • Patient willing and able to give informed consent and adhere to visit/protocol schedules • No clinically relevant abnormalities in blood pressure (BP), heart rate (HR), body temperature and respiratory rate as per Investigator's judgment.
Subject urate serum levels are recorded, and any safety concerns assessed (by adverse events, clinical laboratory test results, vital signs, 12-lead ECGs, and physical examinations). […] Urate serum concentrations are evaluated for treatment- and/or time-dependent changes relative to baseline (Day −1), and may be expressed both in standard units (mg/dL) and as changes from baseline (e.g., percent change, absolute change, maximal change, and time or day of maximal change).
Drug 1 was tested according to the protocol described in Example 21.
Serum urate levels were measured and absolute and % reduction levels from baseline calculated, for Allopurinol monotherapy, Drug 1 monotherapy and Allopurinol plus Drug 1 combination.

A further assay concerns the target xanthine oxidase (Homo sapiens, UniProt P47989). The note with it: cited from earlier work.
The mark [2] stands for this setting: Drug 1 400 mg panel: allopurinol 300 mg qd days 1-7, combination days 8-14, drug 1 400 mg qd alone days 15-21.
Where [3] appears, read: Drug 1 600 mg panel: allopurinol 300 mg qd days 1-7, combination days 8-14, drug 1 600 mg qd alone days 15-21.

Where two headings read alike, the source gives them in different places.

xanthine oxidase, sequence (P47989 whole entry, species assumed): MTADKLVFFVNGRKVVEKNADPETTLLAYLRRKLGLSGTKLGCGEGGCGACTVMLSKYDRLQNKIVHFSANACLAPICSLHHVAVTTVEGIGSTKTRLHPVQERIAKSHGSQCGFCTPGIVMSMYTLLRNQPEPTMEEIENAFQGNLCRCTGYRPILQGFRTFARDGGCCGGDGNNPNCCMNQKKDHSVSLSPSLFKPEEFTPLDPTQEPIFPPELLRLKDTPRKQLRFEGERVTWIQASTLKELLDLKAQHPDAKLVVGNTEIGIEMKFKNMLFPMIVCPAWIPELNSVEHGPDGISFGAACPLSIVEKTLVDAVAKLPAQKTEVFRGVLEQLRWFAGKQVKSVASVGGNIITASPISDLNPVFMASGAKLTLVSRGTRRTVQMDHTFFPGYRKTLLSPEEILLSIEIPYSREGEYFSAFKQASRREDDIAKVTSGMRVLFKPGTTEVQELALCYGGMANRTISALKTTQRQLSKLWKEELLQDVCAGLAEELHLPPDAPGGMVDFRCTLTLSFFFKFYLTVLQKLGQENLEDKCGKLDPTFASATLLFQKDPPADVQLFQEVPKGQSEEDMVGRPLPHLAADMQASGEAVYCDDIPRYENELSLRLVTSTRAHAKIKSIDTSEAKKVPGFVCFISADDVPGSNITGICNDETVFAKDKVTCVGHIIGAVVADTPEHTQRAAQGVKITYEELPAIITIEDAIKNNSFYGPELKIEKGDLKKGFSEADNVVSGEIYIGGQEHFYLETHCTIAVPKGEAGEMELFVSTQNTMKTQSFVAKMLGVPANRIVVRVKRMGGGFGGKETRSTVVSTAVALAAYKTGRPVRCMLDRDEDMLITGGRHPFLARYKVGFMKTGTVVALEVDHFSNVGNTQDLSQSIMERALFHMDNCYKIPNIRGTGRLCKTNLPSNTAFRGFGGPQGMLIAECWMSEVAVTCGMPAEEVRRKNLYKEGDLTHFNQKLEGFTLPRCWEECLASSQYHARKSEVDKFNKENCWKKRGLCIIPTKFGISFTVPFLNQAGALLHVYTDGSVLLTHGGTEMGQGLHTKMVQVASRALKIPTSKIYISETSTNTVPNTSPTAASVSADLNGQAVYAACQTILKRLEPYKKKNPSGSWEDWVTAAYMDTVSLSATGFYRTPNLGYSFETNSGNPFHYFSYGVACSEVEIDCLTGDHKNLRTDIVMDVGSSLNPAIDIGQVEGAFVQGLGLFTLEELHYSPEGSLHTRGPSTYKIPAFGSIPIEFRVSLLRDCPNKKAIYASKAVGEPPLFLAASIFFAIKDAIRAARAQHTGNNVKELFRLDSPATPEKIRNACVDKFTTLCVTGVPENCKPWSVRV

Turning to `O=C(O)CSc1nnc(Br)n1-c1ccc(C2CC2)c2ccccc12` [Drug 1, Sodium 2-(5-bromo-4-(4-cyclopropylnaphthalen-1-yl)-4H-1,2,4-triazol-3-ylthio)acetate], in assay [1] (setting [2]), the “Mean absolute sUA reduction” value was -3.0 ± 0.46 mg/dL, the “Mean sUA % change” value was −30.2 ± 3.7% and the “Mean sUA level” value stood at 6.6 ± 0.22 mg/dL. In assay [1] (Drug 1 400 mg panel), the “% Response rate for sUA falling below 4 mg/dL” value stood at 0%, the “% Response rate for sUA falling below 5 mg/dL” value was found to be 0% and the “% Response rate for sUA falling below 6 mg/dL” value was found to be 20%. Moreover, in assay [1] (setting [3]), the “Mean absolute sUA reduction” value was -3.3 ± 0.23 mg/dL, the “Mean sUA % change” value is −37.2 ± 2.6% and the “Mean sUA level” value is 5.7 ± 0.41 mg/dL. Also, in assay [1] (Drug 1 600 mg panel), the “% Response rate for sUA falling below 4 mg/dL” value stood at 0%, the “% Response rate for sUA falling below 5 mg/dL” value came to 33% and the “% Response rate for sUA falling below 6 mg/dL” value was determined as 67%. For the same compound, the “Inhibition of xanthine oxidase” value at xanthine oxidase is recorded as “does not significantly inhibit”.

Values taken from patent publication US20180161314A1, “Methods for Treating Hyperuricemia and Related Diseases” (Ardea Biosciences, Inc., priority 2010, published 2018).
